These results are taken from patent US20110144578A1, “HYDROPHOBIC THERAPUEUTIC AGENT AND SOLID EMULSIFIER COATING FOR DRUG COATED BALLOON” (priority 2009, published 2011).

Structures are written as SMILES. In brackets after ≈: the same amount, converted by molar mass.

The nature of data set [1]: Solubility enhancement screening in 5% (w/w) excipient solutions in phosphate buffered saline, HPLC of supernatant. The format is physicochemical. Conditions: aqueous buffer, thermodynamic from solid, 37° C., n = 3, read-out: Zotarolimus Solubility. How it is done: Emulsifier candidates can be screened by measuring the degree to which they can enhance the solubility of the therapeutic agent. One way to accomplish this is to make 5% (w/w) solutions of the emulsifiers of interest in a phosphate buffered saline solution. An excess amount of drug is added to the solution and incubated with stirring at 37° C. After centrifugation to precipitate all solids, the supernatant is assayed by HPLC for the drug concentration.

The nature of data set [2]: physchem. Conditions: water. An excerpt:
Using the Stokes-Einstein equation as a simple model, diffusion coefficients are approximately proportional to the molecular weight of a species raised to the −⅓ power. Thus, individual molecules or micelles, which are low in molecular weight, tend to diffuse much faster than microspheres or nanoparticles, which are much higher in molecular weight.

A word on the solubility: it is the concentration that dissolves in the medium under given conditions.

In the case of `CO[C@H]1C[C@@H]2CC[C@@H](C)[C@@](O)(O2)C(=O)C(=O)N2CCCC[C@H]2C(=O)O[C@H]([C@H](C)C[C@@H]2CC[C@H](n3cnnn3)[C@H](OC)C2)CC(=O)[C@H](C)/C=C(\C)[C@@H](O)[C@@H](OC)C(=O)[C@H](C)C[C@H](C)/C=C/C=C/C=C/1C` [Zotarolimus, zotarolimus], the figures for the solubility in data set [1] and in data set [2] were 0.53 µg/mL and 0.5 µg/mL (≈ 0.517 µM), respectively.
